Data reported in patent publication US10813980B2, “Methods for treating osteoarthritis by administering linked variants of growth hormone and somatostatin” (REGULAXIS, priority 2016, dated 2020).
Values joined by “and” are separate entries in the source; they are usually repeats but may differ in a detail not shown here. Equal entries are not always repeated. No end group written: not given here.

What was measured:
[1] = system: male Duncan-Hartley guinea pigs; experiment: In vivo efficiency in guinea pig spontaneous knee osteoarthritis, intra-articular injection, histological analysis; details: for cartilage thickness / sum of the scores representing the degradation of several structures in the joint (total scoring of degradation parameters): five month after intra-articular injection of 50 μl per knee; for cartilage thickness: * p<0.05; for sum of the scores representing the degradation of several structures in the joint (total scoring of degradation parameters): peptide 10^−7 M, vs control and hyaluronic acid alone
Method: Peptide of the invention (corresponding to SEQ ID NO: 4) was dissolved at 2.5 mg/ml in water for injection (CDM Lavoisier) to make a stock solution conserved at −20° C. The syringe was prepared by aspiration of 50 μl of peptide work solution prepared just before use at 10^−7 M (other concentrations are tested) in NaCl 0.9% and kept on ice until use.
The study was performed on male Duncan-Hartley guinea pigs (Harlan), whose particularity is to be affected with age of spontaneous and progressive degeneration of the knee that closely resembles knee osteoarthritis (OA) in humans. Seven 5-month-old animals (weighing 879 g.+/−58.1) were injected per group. Animals were treated in accordance with institutional animal care guidelines. Animals were anesthetized with an anesthesia module (Minerva) with a rapid induction device (4% isoflurane) and anesthesia was maintained using a specific device mask in guinea coaxial (2.5% isoflurane). 50 μl of the peptide of the invention or control—salt solution or Hyalgan® (10 mg/ml solution of MW 500-730 kDa hyaluronic—Laboratoire Expanscience, available in the market)—were injected on each hind legs of the animal into the joint space from the lateral side using a 29 G needle. This was followed by passive knee joint movements to facilitate the intra-articular distribution of the solution.
Five month after injection, the two knee joints from each animal were fixed for 36 to 48 hours in 10% buffered formalin then kept in 70% ethanol and followed by decalcification in 15% EDTA in phosphate buffer. Paraffin sections (3-4 μm) of the central region of the joint were stained with haematoxylin and eosin for histological analyses of cartilage structure, namely: loss of cartilage matrix, cellular abnormalities, appearance of articular cartilage mineralization front, formation of osteophytes and synovial membrane (microscopy: Nikon 80i). A semi-quantitative modified Mankin histological grading system was used to evaluate OA severity (Kraus et al., The OARSI histopathology initiative recommendations for histological assessments of osteoarthritis in the Guinea Pig. Osteoarthritis Cartilage, 2010 (18 S3) S35-S52). The articular cartilage area was analyzed quantitatively by immunohistochemistry (Pastoureau et al., Cartilage, bone and synovial histomorphometry in animal models of osteoarthritis. Osteoarthritis Cartilage. 2010 October; 18 Suppl 3:S106-12). Sections of guinea pig knees were stained with monoclonal antibody (monoclonal anti-chicken mouse collagen II, 6B3 clone—reference MAB887/250, Millipore). The measurement of the total area of articular cartilage was performed with Color deconvolution H DAB and Siox and the measurement of joint height by ImageJ (“Fit Ellipse” module). Statistical analyzes of scoring and quantification results were performed using a Kruskal-Wallis test followed by Dunn's test using PRISM software.

[2] = Raman scattering measurements of peptide conformation (stability of the peptide); type: physicochemical; details: in water, peptide 0.9 mM, with or without HA 1%
Method: Peptide alone, at a concentration of 0.9 mM (2.5 mg/ml), was dissolved in a Millipore filter treated water. Peptide+HA solution consists of peptide dissolved at 0.9 mM in a solution of HA (1.8 MDa) at 1% (10 mg/ml) in water.
Samples were placed in a suprasil quartz cell (5 mm path length) and excited by the 488 nm line of an Ar+ laser (Spectra Physics, CA, USA) with a ˜200 mW power at the sample. Scattered light at right angle was analyzed on a Jobin-Yvon T64000 (HORIBA Jobin-Yvon, France) in a single spectrograph configuration with a 1200 grooves per mm holographic grating and a holographic notch filter. Stokes Raman data were collected by means of a liquid nitrogen cooled CCD detection system (Spectrum One, Jobin-Yvon, France). The effective spectral slit width was set to ˜5 cm^−1. Each recorded spectrum corresponds to a total acquisition time of 1200 s. Buffer subtraction and smoothing of the observed Raman spectra could be performed using the GRAMS/AI package (Thermoage Galactic, MA, USA). The final presentation of these spectra was performed by means of SigmaPlot package (Systat Software Inc., CA, USA).

[3] = listed as peptide of the invention
[4] = five month after intra-articular injection, medial tibial surface of the knee, compared with sham (and HA)

GTSDRVYEKLAGSKNFFWKTFTSS [SEQ ID NO: 4]
cartilage thickness [1]: increased cartilage thickness | cartilage thickness [1, 3]: increase in the thickness of the cartilage | sum of the scores representing the degradation of several structures in the joint (total scoring of degradation parameters) [1]: significantly decreased degradation of cartilage structure | sum of the scores representing the degradation of several structures in the joint (total scoring of degradation parameters) [1, 3]: lowest | osteophytes scoring ([1]; five month after intra-articular injection, ** p<0.001): decreased osteophytes scoring | type II Collagen content (staining) ([1]; five month after intra-articular injection, immunohistochemistry, compared with sham (and HA)): greater synthesis of type II collagen | cartilage structure scoring (cartilage structural damage) [1, 4]: lowest severity | proteoglycan content (proteoglycan loss) [1, 4]: lowest severity | secondary conformation / structure stability by Raman spectra [2]: unstable structure in water | secondary conformation / structure stability by Raman spectra ([2]; listed as peptide alone): Several (4) secondary conformations and 4 major bands
